Residues, ends and D or L forms follow the SMILES beside them.

Experimental findings from US4859584A (priority 1986, dated 1989) are described below.

One series relates to V79 cells.
Conditions: not given
For `CCCCCCCCCCCCCCN1C(=CC=Cc2oc3ccccc3[n+]2CCCCCCCCCCCCCC)Oc2ccccc21` [DiOC14 (3)], the “Cell doubling time / growth of labelled cells” value is “Cell doubling time was unaffected”.

A further series has as its system rabbit red cells. Particulars: in vivo.
As to `CCCCCCCCCCCCCCN1C(=CC=CC=Cc2sc3ccccc3[n+]2CCCCCCCCCCCCCC)Sc2ccccc21` [DiSC14 (5)], the “Effect on clearance rate of red blood cells” value was “did not affect the clearance rate of red blood cells” and the “Lifetime of labelled red cells in circulation” value was determined as 52 days.

The test system of another series is Yac cells.
Conditions: not given
Turning to `NCCCS(=O)(=O)O` [3-Amino-1-propanesulfonic acid], the “Doubling [time] of Yac cells” value amounted to 99.6. The same measure, in the same setting: the value for `NC(=O)CNCCS(=O)(=O)O` [ACES, 2-[(2-Amino-2-oxoethyl)amino]ethane sulfonic acid] was 1038.4. For the compound `O=C(O)CN(CCO)CCO` [BICINE, N,N-bis(2-hydroxyethyl)glycine], the “Doubling [time] of Yac cells” value is 57.7. As to `O=S(=O)(O)CCCNC1CCCCC1` [CAPS, 3-(Cyclohexylamino)-1-propanesulfonic acid], the “Doubling [time] of Yac cells” value was determined as 45.8 and the “Effect on cell doubling time (in words)” value was “negligible effects on cell doubling time”.

Take `O=S(=O)(O)CCNC1CCCCC1` [CHES, 2-(N-cyclohexylamino)ethane sulfonic acid]: the “Doubling [time] of Yac cells” value is given as 51.5.

Regarding `O=S(=O)(O)CC(O)CN(CCO)CCO` (centres unmarked) [DIPSO, 3-[N-N-bis(2-hydroxyethyl)amino]-2-hydroxypropane-sulfonic acid], the “Doubling [time] of Yac cells” value worked out at 36.7 and the “Effect on cell doubling time (in words)” value is reported as “negligible effects on cell doubling time”. On to `O=S(=O)(O)CCCN1CCN(CCO)CC1` [EPPS, N-(2-Hydroxyethyl)piperazine-N-3-propanesulfonic acid], for which the “Doubling [time] of Yac cells” value is given as 32.2 and the “Effect on cell doubling time (in words)” value is “negligible effects on cell doubling time”. For the compound `N[C@H]1C(O)O[C@H](CO)[C@@H](O)[C@@H]1O` (some centres unmarked) [Glucosamine], the “Doubling [time] of Yac cells” value was 288.4. For the compound `O=C[C@H](O)[C@@H](O)[C@H](O)[C@H](O)CO` [Glucose], the “Doubling [time] of Yac cells” value stood at 34.5 and the “Effect on cell doubling time (in words)” value is given as “negligible effects on cell doubling time”.

Take `NCC(=O)NCC(=O)O` [Glycylglycine] (H-Gly-Gly-OH): the “Doubling [time] of Yac cells” value was 66.9.

For `O=S(=O)(O)CC(O)CN1CCN(CCO)CC1` (centres unmarked) [HEPPSO, N-2-hydroxyethylpiperazine-N-2-hydroxypropane-sulfonic acid], the “Doubling [time] of Yac cells” value was 23.4 and the “Effect on cell doubling time (in words)” value is recorded as “negligible effects on cell doubling time”.

On to `O=S(=O)(O)CC(O)CN1CCOCC1` (centres unmarked) [MOPSO, 3-(N-morpholino)-2-hydroxypropane-sulfonic acid], for which the “Doubling [time] of Yac cells” value stood at 178.4. Turning to `OC[C@H]1O[C@@](CO)(O[C@H]2O[C@H](CO)[C@@H](O)[C@H](O)[C@H]2O)[C@@H](O)[C@@H]1O` [Sucrose], the “Doubling [time] of Yac cells” value came to 41.0 and the “Effect on cell doubling time (in words)” value is on record as “negligible effects on cell doubling time”. The corresponding values for `O=S(=O)(O)CCCNC(CO)(CO)CO` [TAPS, Tris(hydoxymethyl)-methylaminopropane sulfonic acid] are 32.7 and “negligible effects on cell doubling time”. For `O=S(=O)(O)CC(O)CNC(CO)(CO)CO` (centres unmarked) [TAPSO, 3-[N-tris(hydroxymethyl)methylamino]-2-hydroxypropanesulfonic acid], the “Doubling [time] of Yac cells” value worked out at 63.6. On the same count and under the same terms, for Phosphate Buffered Saline the value was 31.0.
